Source: patent US20220264878A1, “HERBICIDAL COMPOSITION CONTAINING R-TYPE PYRIDYLOXY CARBOXYLIC ACID DERIVATIVE AND USE THEREOF” (Qingdao Kingagroot Chemical Compound Co., Ltd., priority 2019, published 2022)
Read-outs that look alike come from different tables or passages of the source.

Legend:
Assay type in all cases: in vivo
[1] = system: Eleusine indica; experiment: Post-emergence foliage spray, pot culture, fresh weight inhibition (Tables 151-206; 20 days)
Description: (§1) Table 151-206: Digitaria sanguinalis, Amaranthus retroflexus, Conyza Canadensis, Capsella bursa-pastoris, Eleusine indica were collected in Huangdao of Shandong Province, Sinapis arvensis were collected in Sixian of Anhui Province, Alopecurus japonicus were collected in Tianchang of Anhui Province, Veronica didyma were collected in Siyang of Jiangsu Province.
(§2) The above weeds were cultivated by a pot culture method. […] Full and uniform weed seeds were selected, soaked in warm water at 25° C. for 6 hours, and germinated in a 28° C. biochemical incubator (darkness). The weed seeds that had just germinatedwere evenly placed on the surface of the soil and then covered with 0.5-1 cm soil according to the sizes of seeds.
(§3) The culture was carried out in a controllable sunlight greenhouse at 20 to 30° C., in natural light, and relative humidity of 57% to 72%.
(§4) The technical materials were all dissolved in acetone, and diluted with an aqueous solution containing 0.1% emulsifier Tween-80. The dilution is performed as required.
(§5) A ratio of the active ingredient A to the active ingredient B and amounts thereof in each group depends on the characteristics and toxicity of the two agents, as well as the main application purpose of a corresponding formulation. Based on the pre-tests in this study, the dosage of the active ingredient A and B applied alone and in combination were shown in the tables. Water containing the solvent and emulsifier same with the above groups but free of the agents was used as a blank control.
(§6) Table 1-48, 51-98, 101-148, 151-206: […] per treatment, that is, a total of 60 weeds were treated in one treatment.
(§7) Table 151-206: The agents were used for only once in the experiment. In the stage of weeds with 3˜4 leaves, the weeds were thinned out to maintain 15 weeds per pot and 45 weeds for each treatment, then continued to be cultured to 4˜5 leaves stage of grassy weeds, 5˜6 leaves stage of broadleaf weeds, and treated.
(§8) The well-cultured weeds were evenly placed on a platform with an area of 0.5 m^2, and a solution of agents was sprayed on the stems and leaves thereof by the 3WP-2000-type walking spray tower at a dosage of 450 kg/ha and at a spray pressure of 0.3 MPa. After all the solution was sprayed, the valve was closed. After 30 seconds, the door of the spray tower was opened, and the nutritional bowl was taken out. Then the valve was opened, and the spray tube was cleaned by spraying 50 ml of water.
(§9) A pot-culture method was employed. For the cultivation of weeds, please refer to the Section 1.1), and “Pesticide guidelines for laboratory bioactivity tests—herbicides”. As to a method for applying agents, please refer to the section 2.3.2), that is, a foliage treatment was employed. After the treatment, the weeds were routinely cultured in a greenhouse.
(§10) A method for investigating absolute number was employed, wherein whole seedlings of survival weeds were cut off with a blade along the soil surface, and the fresh weight of the weeds was weighed with an analytical balance. For dead weeds, the fresh weight thereof was zero.
(§11) Table 151-206: The investigation was performed after 20 days of the treatment for only once.
(§12) Theoretical fresh weight inhibition rate of a combination of two active ingredients in each group was calculated by the Gowing method (E0=X+Y−X*Y/100), and then compared with an actually measured inhibition rate (E), thereby effect of the combination (hereafter referred to as combined effect) on weeds was evaluated: the value of E-E0, which was greater than 10%, corresponded to a synergistic effect, the value of E-E0, which was less than −10%, corresponded to an antagonistic effect, and the value of E-E0, which was from −10% to 10%, corresponded to an additional effect.

[2] = system: Digitaria sanguinalis; experiment: as above; conditions: Digitaria sanguinalis, 480 h, 20 days, read-out: Control effect (%) of A applied alone in corresponding dose; for pest or weed control at 75 g/ha: A 75 g a.i./ha; for pest or weed control at 150 g/ha: A 150 g a.i./ha
Description: as §1, §2, §3, §4, §5, §6, §7, §8, §9, §10, §11, §12

[3] = system: Veronica didyma; experiment: as above
Description: as §1, §2, §3, §4, §5, §6, §7, §8, §9, §10, §11, §12

[4] = system: Sinapis arvensis; experiment: as above
Description: as §1, §2, §3, §4, §5, §6, §7, §8, §9, §10, §11, §12

[5] = system: Alopecurus japonicus; experiment: as above
Description: as §1, §2, §3, §4, §5, §6, §7, §8, §9, §10, §11, §12

[6] = system: Conyza Canadensis; experiment: as above
Description: as §1, §2, §3, §4, §5, §6, §7, §8, §9, §10, §11, §12

[7] = system: Capsella bursa-pastoris; experiment: as above; conditions: Capsella bursa-pastoris, 480 h, read-out: Control effect (%) of A applied alone in corresponding dose
Description: as §2, §4, §5
(§13) In the stage of weeds with 3˜4 leaves, the weeds were thinned out to maintain 15 weeds per pot and 45 weeds for each treatment, then continued to be cultured to 4˜5 leaves stage of grassy weeds, 5˜6 leaves stage of broadleaf weeds, and treated.
as §8, §9, §10
(§14) Wherein, in the formula, X represented the fresh weight inhibition rate of the active ingredient A in a dosage of P, and Y represented the fresh weight inhibition rate of the active ingredient B in a dosage of Q.

[8] = system: Amaranthus retroflexus; experiment: as above
Description: as §2, §4, §5, §13, §8, §9, §10, §14

[9] = system: Veronica persica^2 (collected in Zhumadian of Henan Province); experiment: Post-emergence foliage spray, pot culture, fresh weight inhibition (Tables 1-48, 51-98, 101-148; 24 days); conditions: Table 88
Outline: (§15)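 Greenhouse pot plants (20–30 °C, natural light, 57–72% RH) were sprayed once on foliage at 450 kg/ha and 0.3 MPa, at the 5–6-leaf (grass) or 6–7-leaf (broadleaf) stage. Compounds were in acetone diluted with 0.1% Tween-80 water. Surviving shoots were weighed at 24 days; dead plants counted as zero.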

[10] = system: Solanum nigrum; experiment: as above
Outline: as §15

[11] = A alone 75 g a.i./ha, 20 days after treatment
[12] = A alone 150 g a.i./ha, 20 days after treatment
[13] = B alone 75 g a.i./ha, 20 days after treatment
[14] = B alone 150 g a.i./ha, 20 days after treatment
[15] = B alone 300 g a.i./ha, 20 days after treatment
[16] = B alone 600 g a.i./ha, 20 days after treatment

COC(=O)[C@@H](C)Oc1nc(F)c(Cl)c(N)c1Cl [Compound A67]
Control effect (%) of A applied alone in corresponding dose ([1]; A 75 g a.i./ha, 20 days): 42.5%
Control effect (%) of A applied alone in corresponding dose ([1]; A 150 g a.i./ha, 20 days): 75.3%
pest or weed control at 75 g/ha [2]: 23.4%
pest or weed control at 150 g/ha [2]: 62.2%
Control effect (%) of A applied alone in corresponding dose ([3]; A 75 g a.i./ha, 20 days): 23.2%
Control effect (%) of A applied alone in corresponding dose ([3]; A 150 g a.i./ha, 20 days): 43.1%
Control effect (%) of A applied alone in corresponding dose ([4]; A 75 g a.i./ha, 20 days): 45.7%
Control effect (%) of A applied alone in corresponding dose ([4]; A 150 g a.i./ha, 20 days): 72.8%
Control effect (%) of A applied alone in corresponding dose ([5]; A 75 g a.i./ha, 20 days): 28.7%
Control effect (%) of A applied alone in corresponding dose ([5]; A 150 g a.i./ha, 20 days): 52.4%
Control effect (%) of A applied alone in corresponding dose ([6]; A 75 g a.i./ha, 20 days): 45.9%
Control effect (%) of A applied alone in corresponding dose ([6]; A 150 g a.i./ha, 20 days): 65.6%
pest or weed control at 75 g/ha ([7]; A 75 g a.i./ha, 20 days): 51.4%
pest or weed control at 150 g/ha ([7]; A 150 g a.i./ha, 20 days): 75.6%
Control effect (%) of A applied alone in corresponding dose ([8]; A 75 g a.i./ha, 20 days): 31.7%
Control effect (%) of A applied alone in corresponding dose ([8]; A 150 g a.i./ha, 20 days): 63.9%

C[C@@H](Oc1nc(F)c(Cl)c(N)c1Cl)C(=O)OCc1ccco1 [Compound A163]
Control effect (%) of A applied alone in corresponding dose [1, 11]: 31.7%
Control effect (%) of A applied alone in corresponding dose [1, 12]: 56.0%
pest or weed control at 75 g/ha [2]: 16.6%
pest or weed control at 150 g/ha [2]: 45.4%
Control effect (%) of A applied alone in corresponding dose [3, 11]: 18.6%
Control effect (%) of A applied alone in corresponding dose [3, 12]: 34.5%
Control effect (%) of A applied alone in corresponding dose [4, 11]: 29.6%
Control effect (%) of A applied alone in corresponding dose [4, 12]: 47.2%
Control effect (%) of A applied alone in corresponding dose [5, 11]: 24.1%
Control effect (%) of A applied alone in corresponding dose [5, 12]: 44.0%
Control effect (%) of A applied alone in corresponding dose [6, 11]: 39.0%
Control effect (%) of A applied alone in corresponding dose [6, 12]: 55.8%
pest or weed control at 75 g/ha [7, 11]: 41.1%
pest or weed control at 150 g/ha [7, 12]: 60.5%
Control effect (%) of A applied alone in corresponding dose [8, 11]: 26.6%
Control effect (%) of A applied alone in corresponding dose [8, 12]: 53.7%

c1cc[n+]2c(c1)-c1cccc[n+]1CC2 [diquat Dibromide monohydrate]
Control effect (%) of B applied alone in corresponding dose ([3]; B 75 g a.i./ha, 20 days): 5.5%
Control effect (%) of B applied alone in corresponding dose ([3]; B 150 g a.i./ha, 20 days): 12.6%
Control effect (%) of B applied alone in corresponding dose ([3]; B 300 g a.i./ha, 20 days): 41.3%
Control effect (%) of B applied alone in corresponding dose ([3]; B 600 g a.i./ha, 20 days): 80.4%
Control effect (%) of B applied alone in corresponding dose [3, 13]: 5.5%
Control effect (%) of B applied alone in corresponding dose [3, 14]: 12.6%
Control effect (%) of B applied alone in corresponding dose [3, 15]: 41.3%
Control effect (%) of B applied alone in corresponding dose [3, 16]: 80.4%

O=C1C(Cl)C(CCl)CN1c1cccc(C(F)(F)F)c1 (centres unmarked) [flurochloridone]
Control effect (%) of B applied alone in corresponding dose ([9]; 75 g a.i./ha): 2.1%
Control effect (%) of B applied alone in corresponding dose ([9]; 150 g a.i./ha): 12.3%
Control effect (%) of B applied alone in corresponding dose ([9]; 300 g a.i./ha): 44.5%
Control effect (%) of B applied alone in corresponding dose ([9]; 600 g a.i./ha): 79.6%
Control effect (%) of B applied alone in corresponding dose ([10]; B 75 g a.i./ha): 5.5%
Control effect (%) of B applied alone in corresponding dose ([10]; B 150 g a.i./ha): 13.7%
Control effect (%) of B applied alone in corresponding dose ([10]; B 300 g a.i./ha): 45.8%
Control effect (%) of B applied alone in corresponding dose ([10]; B 600 g a.i./ha): 79.7%

C[n+]1ccc(-c2cc[n+](C)cc2)cc1 [paraquat dichloride]
Control effect (%) of B applied alone in corresponding dose ([6]; B 75 g a.i./ha, 20 days): 3.2%
Control effect (%) of B applied alone in corresponding dose ([6]; B 150 g a.i./ha, 20 days): 17.2%
Control effect (%) of B applied alone in corresponding dose ([6]; B 300 g a.i./ha, 20 days): 47.9%
Control effect (%) of B applied alone in corresponding dose ([6]; B 600 g a.i./ha, 20 days): 75.2%
Control effect (%) of B applied alone in corresponding dose [6, 13]: 3.2%
Control effect (%) of B applied alone in corresponding dose [6, 14]: 17.2%
Control effect (%) of B applied alone in corresponding dose [6, 15]: 47.9%
Control effect (%) of B applied alone in corresponding dose [6, 16]: 75.2%
